Assay results taken from publication PMC7716890 (Clinical Pharmacokinetics, 2020).
Entries after “also recorded” stand apart in the source; their conditions may differ. Where two headings read alike, the source gives them in different places.

How the values were obtained:
[1] = for AUC0–tz Ratio T/R / Cmax Ratio T/R: cocktail + probenecid vs cocktail alone
[2] = for AUC0–tz Ratio T/R / Cmax Ratio T/R: cocktail + cimetidine vs cocktail alone
[3] = cited from earlier work
[4] = Safety and tolerability assessment; assay type: in vivo, healthy male subjects; details: one subject, upon administration of probenecid 1000 mg
[5] = Plasma concentrations of the transporter inhibitors around expected time to Cmax; assay type: in vivo, healthy male subjects; details: cimetidine 400 mg multiple doses; current study
[6] = cocktail (furosemide 1 mg) with probenecid vs cocktail alone
[7] = cocktail (metformin 10 mg) with cimetidine vs cocktail alone
[8] = cocktail + rifampin vs cocktail alone
[9] = cocktail + verapamil vs cocktail alone
[10] = cocktail with single-dose rifampin vs cocktail alone
[11] = cocktail with single-dose verapamil vs cocktail alone
[12] = metformin 500 mg with cimetidine vs alone

Row | SMILES | decrease of CLR [1, 6] [%] | increase of AUC0–tz [2, 7] [%] | AUC0–tz Ratio T/R [2] [%] | Cmax Ratio T/R [2] [%] | AUC0–tz Ratio T/R [8] [%] | Cmax Ratio T/R [8] [%] | AUC0–tz Ratio T/R [9] [%] | Cmax Ratio T/R [9] [%] | increase of AUC0–tz [10] [%] | increase of Cmax [10] [%] | AUC0–tz Ratio T/R [1] [%] | Cmax Ratio T/R [1] [%] | other results
1 | NS(=O)(=O)c1cc(C(=O)O)c(NCc2ccco2)cc1Cl [Furosemide, furosemide] | 74 |  |  |  |  |  |  |  |  |  |  |  | decrease of CLR ([1]; furosemide 40 mg with probenecid vs alone): 76%
2 | C[C@H]1O[C@@H](O[C@H]2[C@@H](O)C[C@H](O[C@H]3[C@@H](O)C[C@H](O[C@H]4CC[C@@]5(C)[C@H](CC[C@@H]6[C@@H]5C[C@@H](O)[C@]5(C)[C@@H](C7=CC(=O)OC7)CC[C@]65O)C4)O[C@@H]3C)O[C@@H]2C)C[C@H](O)[C@@H]1O [Digoxin, digoxin] |  | 26 | 125.61 | 122.03 | 131.41 | 218.26 | 100.70 | 121.64 | 31 | 118 | 106.78 | 87.07 | increase in exposure ([3]; digoxin with verapamil administered over multiple days): 44–77%; effect on AUC0–tz [11]: unaltered; also recorded: unchanged; effect on CLR [11]: unchanged; increase of Cmax [11]: 22%; effect of probenecid on systemic exposure ([1]; cocktail with probenecid vs cocktail alone): no relevant effect
3 | CCCN(CCC)S(=O)(=O)c1ccc(C(=O)O)cc1 [Probenecid, probenecid] |  |  |  |  |  |  |  |  |  |  |  |  | AEs leading to premature withdrawal from treatment [4]: nausea, dizziness
4 | CN/C(=N/CCSCc1nc[nH]c1C)NC#N [Cimetidine, cimetidine] |  |  |  |  |  |  |  |  |  |  |  |  | maximum plasma concentrations [5]: 4.24 to 11.1 µM

Continued, in another order:

Row | decrease of CLR [1, 6] [%] | increase of AUC0–tz [2, 7] [%] | AUC0–tz Ratio T/R [2] [%] | Cmax Ratio T/R [2] [%] | AUC0–tz Ratio T/R [8] [%] | Cmax Ratio T/R [8] [%] | AUC0–tz Ratio T/R [9] [%] | Cmax Ratio T/R [9] [%] | increase of AUC0–tz [10] [%] | increase of Cmax [10] [%] | AUC0–tz Ratio T/R [1] [%] | Cmax Ratio T/R [1] [%] | SMILES | other results
5 |  | 31 |  |  |  |  |  |  |  |  |  |  | CN(C)C(=N)N=C(N)N [Metformin, metformin] | increase of Cmax [2, 7]: 23%; increase of AUC0–tz [2, 12]: 51%; increase of Cmax [2, 12]: 41%; increase in systemic exposure ([3]; metformin with cimetidine, previous findings): 45–70%; increase in exposure ([3]; metformin with rifampin coadministration): 10%
6 | 78 |  | 107.42 | 116.88 | 348.06 | 1125.10 | 113.40 | 115.39 | 248 | 1025 | 223.24 | 428.23 | CC(C)c1nc(N(C)S(C)(=O)=O)nc(-c2ccc(F)cc2)c1/C=C/[C@@H](O)C[C@@H](O)CC(=O)O [Rosuvastatin, rosuvastatin] | effect of cimetidine on systemic exposure ([2]; cocktail with cimetidine vs cocktail alone): no effect; effect of verapamil on systemic exposure [11]: no effect; increase of AUC0–tz [1, 6]: 123%; increase of Cmax [1, 6]: 328%
